Measured values reported in patent publication US7388124B2 (priority 2001, dated 2008).
Where “and” joins values, the source holds several entries; their conditions need not be identical. Identical values can stand only once.

Columns and labels:
[1] = system: open surgical rat model for CRPS I; conditions: prior art surgical model, Reyna et al. 1999; cited from earlier work
[2] = system: rat pain model variants; type: in vivo, Sprague Dawley rats; conditions: Morphine Sulfate 5 mg/kg (IP), n=12 rats
Method: Male Sprague Dawley rats initially weighing between 150 and 175 grams were housed singly. […] The pain behaviors studied were static mechanical allodynia (e.g., light touch stimulation with von Frey fibers 4.56, 4.73, 4.93, and/or 5.07), dynamic mechanical allodynia (e.g., stimulation with moving camel hair brush), and/or mechanical hyperalgesia (e.g., pinprick stimulation).
(§1) After the baseline control data was collected, the specified procedure with a gel was performed near the chosen nerve of each variant group (see Tables 2-6 and 8-10), then the rats were tested post procedurally and intermittently for up to 77 days for behavioral changes (see Tables 2-6 and 8-11) and for their responses to substances with analgesic properties (see Tables 7 and 12).
The stimuli used to elicit pain behavior were the von Frey fibers, camel hair brush and pinprick, with 6 stimulations of each stimulus.
(§2) The tunnels identified by the above studies were then used for the placement of the biocompatible gels by the chosen peripheral nerves. The gelatinous or viscous substances (i.e., the gels) placed by the peripheral nerves or nerve roots contained collagen (e.g., AVITENE® and gelatin) or hydrogels. The “collagen gel” used in the present study was composed of 0.8 grams of collagen as AVITENE® (microfibrillar collagen hemostat flour, Davol Inc., Cranston, R.I. 02920) and 0.7 grams of collagen as gelatin (Knox gelatin, Kraft Foods, Northfield, Ill. 60093) mixed with 14 cc of normal saline until homogenous. Then the collagen mixture was placed in a PYREX® bowl resting in a paper bowl and covered with a ceramic saucer, then heated for 20 seconds at full power in a microwave. The resulting viscous mixture was kept fluid in a warm water bath at 100-110° F., until used for the placement procedure. The wound hydrogels used in the present study were two types: one contains alginate (SAF-Gel® from ConvaTec of E. R. Squibb & Sons, Princeton, N.J.) and the other contains acemannan from Aloe vera L. (Carrasyn®V from Carrington Laboratories, Irving, Tex.). […] Such hydrogels are used in the care of open dermal wounds as well as in first and second degree burns since they provide a closed moist environment for wound healing.
(§3) The rats were anesthesized with 1.5% to 2% isoflurane for the percutaneous kinesthetic placement of the above “gels” by the specified nerves. Using an angled 23 gauge thin wall 1″ needle, approximately 0.1 cc-0.2 cc of gel was placed percutaneously with kinesthetic technique in the anatomically defined fascial tunnels of the chosen peripheral nerves as described below.
(§4) The doses were given intraperitoneally (I.P.) and behavioral stimulus testing began 40-80 minutes after the dose. The student's t-test (p<0.05) was performed for determining the significance of changes in behaviors associated with pain after the analgesic was administered.

[3] = system: Mice with Neural Compression; experiment: von Frey fiber and camel hair brush testing for mechanical allodynia in mice with collagen placed by the posterior tibial nerve; type: in vivo; conditions: for Average # Paw Withdrawals: of 10 stimulations, n=10 mice
Method: Biocompatible collagen was prepared for use in the present study. The collagen source was dry gelatin that was prepared using sterile techniques. The dry collagen was measured to 2.5 grams and mixed with 7.5 cc of sterile normal saline. The mixture was heated for 30 seconds in a microwave on 80% power, The mixture was kept soft in warm water (approximately 100 to 110 degrees).
The consistency of the resulting warm collagen was such that it was able to pass through a 23 gauge needle. Humidity and other factors such as temperature can affect the consistency of the substance. 1-cc syringes were used for injection of 0.2 to 0.25 cc of collagen. For the injection, 23 gauge 1″ standard luer lock hypodermic needles were used. The needles were very slightly dulled with a metal file at the tip and edges using sterile technique. The needles were angled at the midpoint with a bevel tip up. The angle was between 30 and 45 degrees, but any angle that allows for easy placement of the injected substance could be used. The needles were then attached to the collagen-filled one cc syringes. The syringes were kept in a warm water bath (100 to 110° F.) to maintain proper gel consistency.
The mice were lightly anesthetized with 1.5 to 2% isoflurane. The mice were then stabilized and aligned such that the left posterior leg was in view. The external anatomic landmarks of the posterior popliteal area were identified. The internal anatomy of this area including the posterior tibial nerve with its artery was mentally visualized with kinesthetic techniques. Kinesthetic techniques are methods that use the kinesthetic sense or the integration of the senses by which movement, mass, turgor, shape, resistance, elasticity, temperature, spatial relationships and position are commonly perceived. It also refers to the integrated use of multiple senses such as touch, proprioception, vision, and hearing. After location of the site for placement of the gel, the needle and syringe were then removed from the warm water bath. The distal portion of the needle was held loosely parallel to the tibia. The needle was allowed to gently penetrate through the dermis by pulling the skin taut over the popliteal fossa. With careful avoidance of tissue resistance, the needle tip, bevel up, was gently slipped beneath the fascial edge of the soleus muscle by the tibial nerve and artery into the deep posterior fascial compartment of the posterior tibial neurovascular tunnel, which is the neurovascular tunnel for the posterior tibial nerve and its proximal branches. When the tip of the needle was at the mid soleus muscle belly, the collagen mixture was slowly injected into the posterior tibial tunnel. The needle was removed and the animals allowed to recover from the anesthetic. All animals were normally moving freely within 20 minutes of anesthesia withdrawal.
Two days after placement of the collagen gel around the nerve, von Frey testing was again performed. Von Frey testing continued for 49 days. […]

[4] = system: rat pain model variants; experiment: Analgesic effect in rat neurogenic pain model variants (overall statement); type: in vivo, Sprague Dawley rats; conditions: morphine 5 mg/kg IP, Tables 7 and 12, within 40-80 minutes, sulfate
Method: (§5) The methods of preparation and testing were similar for all the variant pain models described in this example. Male Sprague Dawley rats initially weighing between 150 and 175 grams were housed singly. Baseline behaviors to stimulations of the paw on which the procedure was to be performed were recorded over several sessions after accommodation of 3-4 days, and the results were averaged and used as the baseline control data. The pain behaviors studied were static mechanical allodynia (e.g., light touch stimulation with von Frey fibers 4.56, 4.73, 4.93, and/or 5.07), dynamic mechanical allodynia (e.g., stimulation with moving camel hair brush), and/or mechanical hyperalgesia (e.g., pinprick stimulation).
as §1
(§6) The stimuli used to elicit pain behavior were the von Frey fibers, camel hair brush and pinprick, with 6 stimulations of each stimulus. Each variant pain model had the same sequence of stimuli with the positive responses averaged and a student T-test performed for the significance of the post procedural responses as compared to the baseline control data (see Tables 2-6 and 11); and for the post-analgesic responses as compared to the pre-analgesic behavioral data (see Tables 7 and 12).
as §2, §3, §4

[5] = system: rat pain model variants; experiment: Mechanical hyperalgesia (pinprick) in rat pain model variants; type: in vivo, Sprague Dawley rats; conditions: for Pinprick # ST[…]-ANALGESIC: of 6
Method: as §5, §1, §6, §2, §3, §4

[6] = system: rat pain model variants; experiment: Dynamic mechanical allodynia (camel hair brush) in rat pain model variants; type: in vivo, Sprague Dawley rats; conditions: Morphine Sulfate 5 mg/kg (IP); n=12 rats; Pre Avg 4.75; p=1.5E-6
Method: as §5, §1, §6
The tunnels identified by the above studies were then used for the placement of the biocompatible gels by the chosen peripheral nerves. The gelatinous or viscous substances (i.e., the gels) placed by the peripheral nerves or nerve roots contained collagen (e.g., AVITENE® and gelatin) or hydrogels. […]

For `CN1CC[C@]23c4c5ccc(O)c4O[C@H]2[C@@H](O)C=C[C@H]3[C@H]1C5.O=S(=O)(O)O` [morphine, morphine sulfate], the analgesic response [1] is listed as “exhibited an analgesic response”, the “Post Avg, Average Positive stimulations out of 6 total, Stim A vF 4.56” value ([2]; Pre Avg 2.83, p=1.6E-4) is listed as 0.33 and the “Post Avg, Average Positive stimulations out of 6 total, Stim B vF 4.93” value ([2]; Pre Avg 3.33, p=1.3E-6) is listed as 0.58. The “Post Avg, Average Positive stimulations out of 6 total, Stim C vF 5.07” value ([2]; Pre Avg 3.33, p=6.1E-6) was 0.83, the “Average # Paw Withdrawals” value ([3]; morphine 1 mg/kg IP, post procedure day 49 (8.71 before dose)) was 8.71 and the “Average # Paw Withdrawals” value ([3]; morphine 5 mg/kg IP, post procedure day 51 (8.88 before dose)) was 6.66. For the same compound, the “Analgesic response (mechanical allodynia)” value ([3]; morphine at least 5 mg/kg IP) was “Analgesic responses were shown”, the “analgesic effect (significance)” value ([4]; listed as Morphine) was “significant analgesic effect” and the “analgesic effect (significance)” value ([4]; listed as morphine Sulfate) was “significant analgesic effects”. The “Pinprick # ST[…]-ANALGESIC” value ([5]; Morphine 5 mg/kg IP, 1 rat peroneal n. with Avitene collagen, pre 6) was 1, the “Pinprick # ST[…]-ANALGESIC” value ([5]; Morphine 5 mg/kg IP, 1 rat tibial n. with Acemannan hydrogel, pre 6) was 2 and the “Pinprick # ST[…]-ANALGESIC” value ([5]; Morphine 5 mg/kg IP, 1 rat tibial n. with Alginate hydrogel, pre 6) was 3. For the same compound, the “Pinprick # ST[…]-ANALGESIC” value ([5]; Morphine 5 mg/kg IP, single rats sciatic n. with Alginate hydrogel (two rats, pre 6 and 6), sulfate) was 2 and 4, the “Pinprick # ST[…]-ANALGESIC, Total” value ([5]; Morphine 5 mg/kg IP, total of 5 rats, pre total 30, pre vs post p=2.1E-3) was 12 and the “Post Avg, Average Positive stimulations out of 6 total, Stim PP Pin Prick” value ([5]; Morphine Sulfate 5 mg/kg (IP), n=12 rats, Pre Avg 5.67, p=2.0E-10) was 2.17. The “Post Avg, Average Positive stimulations out of 6 total, Stim S Brush” value [6] was 1.69.
